From paper PMC7656518 (ACS chemical biology, 2018)
Positions of bridges follow the written chain, without caps; N, C: chain ends. Residues, ends and D or L forms follow the SMILES beside them.

How the values were obtained:
rat INS-1/832-13 β-cells = assay: Alamar Blue β-cell viability; details: 30 μM peptide
[1] = system: hCT(a), hAMY1(a), hAMY2(a), hAMY3(a) receptors; assay: cAMP production, overall statement for the four amylin-responsive receptors; type: cell-based, human; details: stimulation of cAMP production at hCT(a)
[2] = Thioflavin-T fluorescence amyloid formation kinetics and TEM in PBS; type: physicochemical; details: PBS (10 mM phosphate 140 mM KCl) pH 7.4
hAMY1(a) receptor = hAMY1(a) receptor (Homo sapiens, UniProt O60894+P30988); assay: cAMP production; type: cell-based
Sequence of hAMY1(a) receptor (O60894 27-148 partner, one chain of several): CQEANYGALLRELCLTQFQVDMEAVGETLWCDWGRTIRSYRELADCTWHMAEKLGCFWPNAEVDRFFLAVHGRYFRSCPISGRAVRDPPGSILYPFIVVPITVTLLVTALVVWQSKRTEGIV

[3] = Thioflavin-T fluorescence amyloid formation kinetics and TEM in Tris buffer
[4] = Amyloid formation in presence of anionic large unilamellar vesicles; type: physicochemical; details: LUV's 25% POPS / 75% POPC, final concentration 400 μM
hCT(a) receptor = target: T1, hCT(a) receptor (Homo sapiens, UniProt P30988); assay: cAMP production; type: cell-based
T1 sequence (P30988 25-474): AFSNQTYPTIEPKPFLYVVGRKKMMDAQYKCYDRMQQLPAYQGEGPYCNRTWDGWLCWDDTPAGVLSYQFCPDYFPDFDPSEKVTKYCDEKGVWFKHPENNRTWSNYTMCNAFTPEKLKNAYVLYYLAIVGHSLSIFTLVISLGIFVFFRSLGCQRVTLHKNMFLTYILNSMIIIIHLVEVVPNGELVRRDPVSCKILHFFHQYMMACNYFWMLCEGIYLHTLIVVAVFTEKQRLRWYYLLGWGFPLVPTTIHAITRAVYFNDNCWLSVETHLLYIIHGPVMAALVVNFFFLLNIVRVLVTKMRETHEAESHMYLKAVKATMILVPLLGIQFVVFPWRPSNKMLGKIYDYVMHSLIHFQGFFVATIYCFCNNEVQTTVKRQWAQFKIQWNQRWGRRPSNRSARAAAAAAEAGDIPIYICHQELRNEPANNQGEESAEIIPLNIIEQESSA

hAMY3(a) receptor = target: T2, hAMY3(a) receptor (Homo sapiens, UniProt O60896+P30988); assay: cAMP production; type: cell-based
T2 sequence (P30988 25-474): T1 sequence (P30988 25-474)
T2 sequence (O60896 24-148 partner): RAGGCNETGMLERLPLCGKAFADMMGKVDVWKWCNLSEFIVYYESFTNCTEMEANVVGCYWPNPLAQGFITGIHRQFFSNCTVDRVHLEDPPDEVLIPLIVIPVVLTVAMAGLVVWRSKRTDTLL

hAMY2(a) receptor = hAMY2(a) receptor (Homo sapiens, UniProt O60895+P30988); assay: cAMP production; type: cell-based
Sequence of hAMY2(a) receptor (O60895 43-175 partner, one chain of several): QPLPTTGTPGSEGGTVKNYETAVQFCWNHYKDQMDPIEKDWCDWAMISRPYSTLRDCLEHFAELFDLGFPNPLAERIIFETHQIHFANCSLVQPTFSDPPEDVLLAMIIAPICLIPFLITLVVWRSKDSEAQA

Structure (SMILES): CC[C@H](C)[C@H](NC(=O)[C@H](C)NC(=O)CNC(=O)[C@H](CC(C)C)NC(=O)[C@H](CCCCN)NC(=O)[C@H](CC(N)=O)NC(=O)[C@H](CO)NC(=O)[C@H](CO)NC(=O)[C@@H]1CCCN1C(=O)[C@H](C)NC(=O)[C@H](CC(C)C)NC(=O)[C@H](Cc1ccccc1)NC(=O)[C@H](CC(N)=O)NC(=O)[C@H](C)NC(=O)[C@H](CC(C)C)NC(=O)[C@H](CCCNC(=N)N)NC(=O)[C@H](CCC(N)=O)NC(=O)[C@@H](NC(=O)[C@H](CCC(=O)O)NC(=O)[C@@H]1CSSC[C@H](NC(=O)[C@@H](N)CCCCN)C(=O)NCC(=O)N[C@@H]([C@@H](C)O)C(=O)N[C@@H](C)C(=O)N[C@@H]([C@@H](C)O)C(=O)N1)[C@@H](C)O)C(=O)N[C@@H](Cc1ccccc1)C(=O)N[C@@H](CO)C(=O)N1CCC[C@H]1C(=O)N[C@H](C(=O)N[C@@H](CCCCN)C(=O)N[C@@H](CCSC)C(=O)NCC(=O)N[C@@H](CO)C(=O)N[C@@H](CC(N)=O)C(=O)N[C@H](C(=O)N[C@@H](Cc1ccc(O)cc1)C(N)=O)[C@@H](C)O)[C@@H](C)O [b-amylin] (H-KCGTATCETQRLANFLAPSSNKLGAIFSPTKMGSNTY-NH2; disulfide 2-7; N-terminus assumed)
- toxicity (in words) (rat INS-1/832-13 β-cells; 24 h incubation): did not exhibit any toxicity
- toxicity (in words) (rat INS-1/832-13 β-cells; 84 h incubation): not toxic
- fold less potent than h-amylin [1]: at least 300 fold
- amyloid fibrils by TEM [2]: no amyloid fibrils were detected
- increase in thioflavin-T fluorescence signal ([2]; 7 days of incubation): no significant increase in thioflavin-T fluorescence signal was observed
- Emax (hAMY1(a) receptor; COS-7): 83.1 ± 10.6%
- EC50 (hAMY1(a) receptor; SEM): 0.912 µM
- agonist character (hAMY1(a) receptor; hAMY1(a), cAMP production): full agonist
- Fold-change (hAMY1(a) receptor; potency of b-amylin relative to h-amylin at hAMY1(a)): > −5000
- increase in thioflavin-T fluorescence signal ([3]; 16 μM peptide, 32 μM thioflavin-T, pH 7.4, 25°C, 20 mM Tris, 6 days of incubation): no increase in thioflavin-T fluorescence signal was observed
- amyloid formation at a range of peptide concentrations ([3]; 20 mM Tris pH 7.4, highest concentration examined 64 μM): no amyloid was detected
- amyloid formation in presence of LUV's [4]: no amyloid formation was detected
- Emax (hCT(a) receptor; COS-7): 62.9 ± 8.25%
- EC50 (hCT(a) receptor; SEM): 1.55 µM
- agonist character (hCT(a) receptor; hCT(a), cAMP production): partial agonist
- Fold-change (hCT(a) receptor; potency of b-amylin relative to h-amylin at hCT(a)): > −400
- Emax (hAMY3(a) receptor; COS-7): 62.4 ± 9.31%
- EC50 (hAMY3(a) receptor; SEM): 1.35 µM
- Fold-change (hAMY3(a) receptor; potency of b-amylin relative to h-amylin at hAMY3(a)): > −2000
- Emax (hAMY2(a) receptor; COS-7): 73.9 ± 4.27%
- EC50 (hAMY2(a) receptor; SEM): 1.17 µM
- Fold-change (hAMY2(a) receptor; potency of b-amylin relative to h-amylin at hAMY2(a)): > −600
